Experimental data from ChEMBL document CHEMBL3526005, “Pharmacokinetic and pharmacodynamic properties of cholinesterase inhibitors donepezil, tacrine, and galantamine in aged and young Lister hooded rats” (Drug Metab Dispos, 2011).
Active and inactive are the calls of the source. The rule behind the calls is not given here.

Assays:
[1] = in vivo; settings: Lister Hooded, rat, po, 3 mg/kg
[2] = Drug excretion in human feces at 2 mg, po single dose; settings: in vivo
[3] = species: Rattus norvegicus; settings: in vivo, iv, 1 mg/kg, 1 h
[4] = tested on: Rattus norvegicus; experiment: Inhibition of cholinesterase activity in 7 months-old Lister Hooded rat plasma at 3 mg/kg, po after 1 hr treatment; assay type: organism-based; set-up: dose 3 mg/kg
[5] = Half life in human at 2 mg, po single dose; settings: in vivo
[6] = in vivo; settings: Lister Hooded, rat, brain, po, 3 mg/kg
Description: Ratio of brain to blood in 30 months-old Lister Hooded rat blood at 3 mg/kg, po after 1 hr treatment

[7] = Clearance in human at 2 mg, po single dose; settings: in vivo
[8] = biological target: Butyrylcholinesterase (Rattus norvegicus) (UniProt Q9JKC1); settings: Lister Hooded, Plasma, 3 mg/kg
Description: Inhibition of butyrylcholinesterase activity in 7 months-old Lister Hooded rat plasma at 3 mg/kg, po after 1 hr treatment

[9] = in vivo; settings: Lister Hooded, rat, po, 3 mg/kg; remark: listed apart in the source
[10] = Drug uptake in 30 months-old Lister Hooded rat blood at 3 mg/kg, po after 1 hr treatment; settings: in vivo
[11] = species: Rattus norvegicus; settings: in vivo, iv, 1 mg/kg, 1 h; remark: listed apart in the source
[12] = Volume of distribution in 30 months-old Lister Hooded rat at 1 mg/kg, iv infusion for 1 hr; settings: in vivo
[13] = Plasma protein binding in human at 2 mg, po single dose; settings: in vivo
[14] = Oral bioavailability in human at 2 mg single dose; settings: in vivo
[15] = in vivo; settings: Lister Hooded, rat, po, 3 mg/kg; remark: listed apart in the source
[16] = in vivo; settings: Lister Hooded, rat, iv, 1 mg/kg
[17] = in vivo; settings: Lister Hooded, rat, iv, 1 mg/kg; remark: listed apart in the source
[18] = species: Rattus norvegicus; settings: in vivo, po, 3 mg/kg
[19] = Drug excretion in human urine at 2 mg, po single dose; settings: in vivo
[20] = Volume of distribution in 7 months-old Lister Hooded rat at 1 mg/kg, iv infusion for 1 hr; settings: in vivo
[21] = Half life in 30 months-old Lister Hooded rat at 1 mg/kg, iv infusion for 1 hr; settings: in vivo
[22] = biological target: Butyrylcholinesterase (Rattus norvegicus) (UniProt Q9JKC1); settings: Lister Hooded, 3 mg/kg
Description: Inhibition of butyrylcholinesterase activity in 7 months-old Lister Hooded rat brain at 3 mg/kg, po after 1 hr treatment

[23] = tested on: Homo sapiens; experiment: Volume of distribution in human at 2 mg, po single dose; settings: in vivo
[24] = Half life in 7 months-old Lister Hooded rat at 1 mg/kg, iv infusion for 1 hr; settings: in vivo
[25] = Ratio of brain to blood in 7 months-old Lister Hooded rat blood at 3 mg/kg, po after 1 hr treatment
[26] = in vivo; settings: Lister Hooded, rat, po, 3 mg/kg; remark: listed apart in the source
[27] = Drug uptake in 30 months-old Lister Hooded rat assessed as corrected brain concentration at 3 mg/kg, po after 1 hr treatment; settings: in vivo
[28] = species: Rattus norvegicus; settings: in vivo, po, 3 mg/kg; remark: listed apart in the source
[29] = in vivo; settings: Lister Hooded, rat, iv, 1 mg/kg; remark: listed apart in the source
[30] = in vivo; settings: Lister Hooded, rat, po, 3 mg/kg; remark: listed apart in the source
[31] = in vivo; settings: Lister Hooded, rat, po, 3 mg/kg; remark: listed apart in the source
[32] = Tmax in human at 2 mg, po single dose; settings: in vivo
[33] = in vivo; settings: Lister Hooded, rat, iv, 1 mg/kg; remark: listed apart in the source
[34] = Mean residence time in 7 months-old Lister Hooded rat at 1 mg/kg, iv infusion for 1 hr; settings: in vivo
[35] = Drug uptake in 7 months-old Lister Hooded rat blood at 3 mg/kg, po after 1 hr treatment; settings: in vivo
[36] = Drug uptake in 7 months-old Lister Hooded rat assessed as corrected brain concentration at 3 mg/kg, po after 1 hr treatment; settings: in vivo
[37] = Mean residence time in 30 months-old Lister Hooded rat at 1 mg/kg, iv infusion for 1 hr; settings: in vivo
[38] = species: Rattus norvegicus; settings: in vivo, iv, 1 mg/kg, 1 h; remark: listed apart in the source
[39] = species: Rattus norvegicus; settings: in vivo, po, 3 mg/kg; remark: listed apart in the source
[40] = species: Rattus norvegicus; settings: in vivo, po, 3 mg/kg; remark: listed apart in the source
[41] = species: Rattus norvegicus; settings: in vivo, iv, 1 mg/kg, 1 h; remark: listed apart in the source
[42] = Drug excretion in human urine assessed as unchanged drug level at 2 mg, po single dose; assay type: ADME, organism-based; settings: read-out: Drug excretion
[43] = tested on: Rattus norvegicus; experiment: Inhibition of cholinesterase activity in 30 months-old Lister Hooded rat plasma assessed as percent enhancement of inhibition at 3 mg/kg, po after 1 hr treatment; assay type: organism-based; set-up: dose 3 mg/kg; scale not given: the % may be the effect or the level left

Butyrylcholinesterase (Rattus norvegicus), sequence (Q9JKC1 as listed by the source): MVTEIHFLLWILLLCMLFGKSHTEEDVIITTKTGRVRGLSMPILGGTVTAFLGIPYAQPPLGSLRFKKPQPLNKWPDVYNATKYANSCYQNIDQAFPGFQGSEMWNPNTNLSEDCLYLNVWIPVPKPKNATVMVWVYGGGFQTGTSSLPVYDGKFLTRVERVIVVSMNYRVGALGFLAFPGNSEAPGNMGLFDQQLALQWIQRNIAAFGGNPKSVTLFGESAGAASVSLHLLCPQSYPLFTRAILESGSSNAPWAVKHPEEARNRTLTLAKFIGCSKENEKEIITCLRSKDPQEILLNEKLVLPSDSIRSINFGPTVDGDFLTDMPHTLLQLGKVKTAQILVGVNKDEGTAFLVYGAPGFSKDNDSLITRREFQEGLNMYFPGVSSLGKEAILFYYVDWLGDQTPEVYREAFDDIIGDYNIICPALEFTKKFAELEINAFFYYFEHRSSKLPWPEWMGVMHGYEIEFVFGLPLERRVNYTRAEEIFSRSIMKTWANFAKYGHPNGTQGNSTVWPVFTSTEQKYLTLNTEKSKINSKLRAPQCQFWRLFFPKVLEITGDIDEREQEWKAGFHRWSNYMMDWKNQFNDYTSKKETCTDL

Cl.Nc1c2c(nc3ccccc13)CCCC2 [TACRINE HYDROCHLORIDE]
bioavailability [1]: 29%
Drug excretion [2]: 23%
AUCt/dose [3]: 10.2 kg·min/L
inhibition [4]: 92.6%
half-life [5]: 2 h
Kp at 1 h [6]: 9.5
CL/F [7]: 2.42 L/h/kg
inhibition [8]: Active
Cmax [9]: 0.31 µM
concentration at 1 h [10]: 0.19 µM
AUCt/dose [11]: 12.4 kg·min/L
Vd at 1 h [12]: 5.2 L/kg
fraction unbound [13]: 0.45
bioavailability [14]: 17%
Tmax [15]: 0.5 h
Cmax at 1 h [16]: 0.7 µM
clearance at 1 h ([17]; in vivo): 4.62 L/h/kg
AUCt [18]: 890 nM·h
Drug excretion [19]: 57%
Vd at 1 h [20]: 5.1 L/kg
half-life at 1 h [21]: 1.1 h
inhibition [22]: Active
Vd [23]: 5.02 L/kg
half-life at 1 h [24]: 0.9 h
Kp at 1 h [25]: 11
Cmax [26]: 0.36 µM
concentration at 1 h [27]: 1.72 µM
AUCt [28]: 700 nM·h
Cmax at 1 h [29]: 0.74 µM
Tmax [30]: 0.5 h
bioavailability [31]: 27%
Tmax [32]: 1 h
clearance at 1 h ([33]; in vivo): 5.58 L/h/kg
MRT at 1 h [34]: 0.9 h
concentration at 1 h [35]: 0.11 µM
concentration at 1 h [36]: 1.24 µM
MRT at 1 h [37]: 1.1 h

Br.COc1ccc2c3c1O[C@H]1C[C@@H](O)C=C[C@@]31CCN(C)C2 [GALANTAMINE HYDROBROMIDE]
bioavailability [1]: 67%
AUCt/dose [3]: 20.4 kg·min/L
AUC/dose [38]: 22.7 kg·min/L
inhibition [4]: 92.6%
half-life [5]: 5 h
AUC/dose [39]: 17.4 kg·min/L
Kp at 1 h [6]: 2
CL/F [7]: 0.34 L/h/kg
Cmax [9]: 1.33 µM
concentration at 1 h [10]: 0.58 µM
AUCt/dose [11]: 28.9 kg·min/L
Vd at 1 h [12]: 2.9 L/kg
bioavailability [14]: 85%
Tmax [15]: 0.5 h
AUC/dose [40]: 19.3 kg·min/L
Cmax at 1 h [16]: 0.59 µM
AUC/dose [41]: 29.9 kg·min/L
clearance at 1 h ([17]; blood): 2.04 L/h/kg
AUCt [18]: 3450 nM·h
Vd at 1 h [20]: 5 L/kg
half-life at 1 h [21]: 1.2 h
Vd [23]: 2.9 L/kg
half-life at 1 h [24]: 1.9 h
Kp at 1 h [25]: 1.7
Cmax [26]: 0.89 µM
concentration at 1 h [27]: 1.14 µM
AUCt [28]: 2890 nM·h
Cmax at 1 h [29]: 0.91 µM
Tmax [30]: 0.5 h
bioavailability [31]: 83%
dose excreted [42]: 32%
Tmax [32]: 1 h
clearance at 1 h ([33]; blood): 2.46 L/h/kg
MRT at 1 h [34]: 2 h
concentration at 1 h [35]: 0.42 µM
concentration at 1 h [36]: 0.73 µM
MRT at 1 h [37]: 1.5 h

COc1cc2c(cc1OC)C(=O)C(CC1CCN(Cc3ccccc3)CC1)C2.Cl (configuration not stated) [DONEPEZIL HYDROCHLORIDE]
bioavailability [1]: 43%
AUCt/dose [3]: 15.9 kg·min/L
inhibition [4]: 92.6%
half-life [5]: 70 h
AUC/dose [39]: 5.8 kg·min/L
Activity [43]: 18%
Kp at 1 h [6]: 5.3
CL/F [7]: 0.13 L/h/kg
Cmax [9]: 0.2 µM
AUCt/dose [11]: 16.4 kg·min/L
Vd at 1 h [12]: 11.8 L/kg
bioavailability [14]: 100%
Tmax [15]: 1 h
AUC/dose [40]: 6.9 kg·min/L
Cmax at 1 h [16]: 0.32 µM
AUC/dose [41]: 23.7 kg·min/L
clearance at 1 h ([17]; blood): 2.58 L/h/kg
AUCt [18]: 910 nM·h
Vd at 1 h [20]: 9.2 L/kg
half-life at 1 h [21]: 3.6 h
Vd [23]: 12 L/kg
half-life at 1 h [24]: 2.5 h
Kp at 1 h [25]: 4.4
Cmax [26]: 0.18 µM
AUCt [28]: 760 nM·h
Cmax at 1 h [29]: 0.3 µM
Tmax [30]: 1 h
bioavailability [31]: 36%
dose excreted [42]: 17%
Tmax [32]: 3 h
clearance at 1 h ([33]; blood): 3.12 L/h/kg
MRT at 1 h [34]: 3 h
MRT at 1 h [37]: 4.6 h
